Assay results taken from patent publication US20100183699A1, “COMPOSITIONS AND METHODS TO CROSS LINK POLYMER FIBERS” (priority 2009, published 2010).
Entries after “also recorded” stand apart in the source; their conditions may differ. Where two headings read alike, the source gives them in different places.

Columns and labels:
[1] = tested on: cells; conditions: cited from earlier work; for cytotoxicity: crosslinking agent
[2] = literature reports on alternative crosslinkers, cited from earlier work
[3] = SEM fiber morphology after exposure to aqueous environment (water, DMEM); assay type: physicochemical; conditions: genipin 0.03-0.1 M in absolute ethanol or isopropanol, crosslinking for 5 days
Description: All samples were imaged using a Scanning Electron Microscope (Leo 1530) and diameters of 100 randomly selected fibers were measured, per sample, using image processing software (ImageJ). One-way ANOVA using the Tukey test was used to compare the difference between the diameters of crosslinked samples (Dcrosslink) and after exposure to growth media for 1 and 3 days (Dfinal). If a significant difference existed, the percent swelling was then calculated using the equation: […]
The experimental parameters investigated were: solvent (isopropanol, ethanol), water content (0%, 1%, 3% and 5%) and reaction time (1, 3 and 5 days). All electrospun collagen fiber samples were exposed to air and the reaction temperature was maintained at 37° C. in an incubator. The genipin concentration was fixed at 11.3 mg of genipin per mg of collagen, which was sufficient for the crosslinking reaction to reach completion (Yao, C. H., et al., Materials Chemistry and Physics 2004, 83, (2-3), 204-208). After crosslinking, the collagen samples were washed in ethanol or isopropanol (depending on the solvent used) for further characterization.

Row | Compound | cytotoxicity [1] | swelling / morphology of crosslinked collagen fibers in water [2] | swelling / morphology of crosslinked collagen fibers in water ([2]; listed as GA) | morphology and overall architecture of collagen nanofibers after exposure to water [3] | cell proliferation ([1]; compared to glutaraldehyde)
1 | O=CCCCC=O [glutaraldehyde, Glutaraldehyde] | highly cytotoxic | not very effective in controlling its swelling properties | failed to maintain collagen fiber morphology; also recorded: swell significantly in water |  | 
2 | O=C1CCC(=O)N1O [NHS, N-hydroxysuccinimide] |  | significant degree of swelling |  |  | 
3 | COC(=O)C1=CO[C@@H](O)[C@@H]2C(CO)=CC[C@H]12 [genipin] | low cytotoxicity |  |  | failed to maintain the morphology | more stimulative to cell proliferation
4 | CCN=C=NCCCN(C)C [EDC, 1-ethyl-3-(3-dimethylaminopropyl) carbodiimide] |  | significant degree of swelling |  |  | 
